We go through 23 molecules from US20230365589A1, “NOVEL AMINE DERIVATIVES” (Sumitomo Pharma Co., Ltd., priority 2020, published 2023).

Where two headings read alike, the source gives them in different places.

Holding throughout (type): biochemical
In one experiment the target is T1, DYRK1A (Homo sapiens, UniProt Q13627).
T1 construct: purchased Carna Biosciences, Inc. 04-130
As to the kind of experiment: Inhibition test on activity of DYRK family, mobility shift assay (MSA): DYRK1A. As to the method: (§1) [Inhibition Test on Activity of DYRK Family (DYRK1A, DYRK1B, DYRK2, and DYRK3)]
(§2) The kinase activity was measured by mobility shift assay (MSA) method using QuickScout Screening Assist™ MSA (commercially available kit manufactured by Carna Biosciences, Inc.). The substrate of the kinase reaction used was an FITC-labeled DYRKtide peptide included in the kit. An assay buffer [20 mM HEPES, 0.01% Triton X-100™, 2 mM dithiothreitol, pH 7.5]was used to create a substrate mixture solution with a substrate (4 μM), MgCl2(20 mM), and ATP (DYRK1A: 100 μM; DYRK1B: 200 μM; DYRK2: 40 μM; and DYRK3: 20 μM). In addition, kinases (DYRK1A: manufactured by Carna Biosciences, Inc., Cat. No. 04-130; DYRK1B: manufactured by Carna Biosciences, Inc., Cat. No. 04-131; DYRK2; manufactured by Carna Biosciences, Inc., Cat. No. 04-132; and DYRK3; manufactured by Carna Biosciences, Inc., Cat. No. 04-133) were diluted with the assay buffer to prepare enzyme solutions (DYRK1A: 0.2 ng/μL; DYRK1B: 0.08 ng/μL; DYRK2: 0.04 ng/μL; and DYRK3: 0.25 ng/μL). The 10 mM solution of the test compound in DMSO was further diluted with DMSO to 10 levels of the concentration (0.00003 mM, 0.0001 mM, 0.0003 mM, 0.001 mM, 0.003 mM, 0.01 mM, 0.03 mM, 0.1 mM, 0.3 mM, and 1 mM), each of which was subjected to 25-fold dilution with the assay buffer to obtain a drug solution (4% DMSO solution). 5 μL of the drug solution or a control solution (4% DMSO-assay buffer), 5 μL of the substrate mixture solution, and 10 μL of the enzyme solution were mixed in the wells of a polypropylene 384-well plate and allowed to react at room temperature for 1 hour, and then the reaction was quenched by adding 60 μL of the termination buffer included in the kit. Subsequently, the quantities of the substrates (S) and the phosphorylated substrate (P) in the reaction solution were measured using LabChip EZ Reader II system (manufactured by Caliper Life Sciences) according to the protocol of the assay kit.
(§3) The heights of the peaks of the “substrate” and the “phosphorylated substrate” were expressed as S and P, respectively, and a blank containing the assay buffer instead of the enzyme solution was also measured.
(§4) The inhibition rate (%) of the test compound was calculated according to the following equation:
(§5) Inhibition rate (%)=(1−(C−A)/(B−A))×100 • wherein, A, B, and C represent P/(P+S) of the blank well, P/(P+S) of the control solution well, and P/(P+S) of the compound-containing well, respectively.
(§6) The IC50 value was calculated via a regression analysis of the inhibition rate and the test compound concentration (logarithmic value).

A further experiment concerns the target T2, DYRK3 (Homo sapiens, UniProt O43781).
T2 construct: purchased Carna Biosciences, Inc. 04-133
T2 sequence (O43781 1-568 isoform O43781-2): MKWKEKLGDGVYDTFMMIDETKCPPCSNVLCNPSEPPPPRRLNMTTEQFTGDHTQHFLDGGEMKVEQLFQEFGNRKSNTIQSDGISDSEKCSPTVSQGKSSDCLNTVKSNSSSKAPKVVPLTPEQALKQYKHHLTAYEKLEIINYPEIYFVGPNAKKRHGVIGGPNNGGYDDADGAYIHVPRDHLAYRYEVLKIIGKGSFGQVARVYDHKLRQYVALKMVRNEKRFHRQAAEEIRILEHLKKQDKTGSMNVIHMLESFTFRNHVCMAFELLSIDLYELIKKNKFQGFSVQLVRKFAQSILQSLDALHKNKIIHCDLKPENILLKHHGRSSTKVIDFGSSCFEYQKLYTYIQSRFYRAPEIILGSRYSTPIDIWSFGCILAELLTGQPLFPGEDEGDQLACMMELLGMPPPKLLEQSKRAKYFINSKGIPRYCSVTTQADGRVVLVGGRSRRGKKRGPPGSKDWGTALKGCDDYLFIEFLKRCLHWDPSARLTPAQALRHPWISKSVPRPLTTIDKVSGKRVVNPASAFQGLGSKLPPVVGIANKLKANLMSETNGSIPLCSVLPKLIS
As to the kind of experiment: Inhibition test on activity of DYRK family, mobility shift assay (MSA): DYRK3. How it is done:
as §1, §2, §3, §4, §5, §6
(§7) The inhibiting activities of representative compounds of the present invention are shown against DYRK1A, DYRK1B, DYRK2, and DYRK3 in Tables.

A further experiment addresses T3, DYRK2 (Homo sapiens, UniProt Q92630).
T3 construct: purchased Carna Biosciences, Inc. 04-132
T3 sequence (Q92630 74-601 limits assumed): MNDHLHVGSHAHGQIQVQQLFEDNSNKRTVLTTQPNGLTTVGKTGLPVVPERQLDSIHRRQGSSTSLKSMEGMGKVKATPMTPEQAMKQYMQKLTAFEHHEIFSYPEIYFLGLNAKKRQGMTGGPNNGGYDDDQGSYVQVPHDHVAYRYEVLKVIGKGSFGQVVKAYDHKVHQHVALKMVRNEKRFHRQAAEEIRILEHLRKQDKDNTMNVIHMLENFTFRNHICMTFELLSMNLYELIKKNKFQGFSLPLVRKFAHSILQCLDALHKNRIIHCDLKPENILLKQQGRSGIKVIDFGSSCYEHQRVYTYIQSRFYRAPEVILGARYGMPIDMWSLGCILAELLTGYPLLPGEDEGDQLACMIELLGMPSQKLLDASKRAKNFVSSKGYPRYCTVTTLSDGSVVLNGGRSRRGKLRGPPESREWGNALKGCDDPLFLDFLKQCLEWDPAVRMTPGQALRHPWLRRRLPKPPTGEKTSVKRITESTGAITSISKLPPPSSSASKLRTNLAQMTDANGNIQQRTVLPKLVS
Put plainly: Inhibition test on activity of DYRK family, mobility shift assay (MSA): DYRK2. How it is done: as §1, §2, §3, §4, §5, §6, §7

Where [1] appears, read: MSA, FITC-labeled DYRKtide peptide, ATP 100 μM, read-out: Inhibitory activity DYRK 1A (IC50 class).
Where [2] appears, read: MSA, FITC-labeled DYRKtide peptide, ATP 20 μM, read-out: Inhibitory activity DYRK 3 (IC50 class).
Where [3] appears, read: MSA, FITC-labeled DYRKtide peptide, ATP 40 μM, read-out: Inhibitory activity DYRK 2 (IC50 class).
The mark [4] stands for this setting: read-out: Inhibitory activity DYRK 1A.
Setting [5] is: read-out: Inhibitory activity DYRK 3.
Setting [6] is: read-out: Inhibitory activity DYRK 2.

Turning to `CC(=O)N1CC[C@@H]2NC(=O)N(c3nc4c5c(ccc4s3)OCC5)[C@@H]2C1` (relative stereo) [Example 20, cis-5-Acetyl-3-(7,8-dihydrofuro[3,2-e][1,3]benzothiazol-2-yl) octahydro-2H-imidazo[4,5-c]pyridin-2-one], the IC50 was 0.1 to 1 µM at DYRK1A (setting [1]), over 1 µM at DYRK3 (setting [2]) and over 1 µM on DYRK2 (setting [3]).
For the molecule `O=C1N[C@@H]2CCN(C3CC3)C[C@@H]2N1c1nc2c3c(ccc2s1)OCCO3` (relative stereo) [Example 31, cis-5-Cyclopropyl-3-(7,8-dihydro[1,4]dioxino[2,3-e][1,3]benzothiazol-2-yl)octahydro-2H-imidazo[4,5-c]pyridin-2-one], the IC50 was under 0.01 µM at DYRK1A (setting [1]), at least 1 µM at DYRK3 (setting [2]) and at least 1 µM on DYRK2 (setting [3]).
For `O=C1N[C@@H]2CCN(C3CC3)C[C@@H]2N1c1nc2c3c(ccc2s1)OCCO3` (single isomer, unassigned) [Example 33], the IC50 was 0.1 to 1 µM on DYRK1A (setting [1]), at least 1 µM at DYRK3 (setting [2]) and at least 1 µM on DYRK2 (setting [3]).
For the molecule `O=C1N[C@@H]2CCN(C3CC3)C[C@@H]2N1c1nc2c3c(ccc2s1)OCO3` (single isomer, unassigned) [Example 35], the IC50 at DYRK1A (setting [1]), on DYRK3 (setting [2]) and at DYRK2 (setting [3]) was at least 1 µM in each case.
With `O=C1N[C@@H]2CCN(C3CC3)C[C@@H]2N1c1nc2c3c(ccc2s1)OCC3` (single isomer, unassigned) [Example 109], the IC50 on DYRK1A (setting [4]), on DYRK3 (setting [5]) and at DYRK2 (setting [6]) was at least 1 µM each time.
With `O=C1N[C@H]2CCN(C3CC3)C[C@H]2N1c1nc2c3c(ccc2s1)OCC3` (single isomer, unassigned) [Example 110], the IC50 was under 0.01 µM at DYRK1A (setting [4]), at least 1 µM at DYRK3 (setting [5]) and at least 1 µM at DYRK2 (setting [6]).
With `N#CCN1CC[C@H]2NC(=O)N(c3nc4c5c(ccc4s3)OCC5)[C@H]2C1` (single isomer, unassigned) [Example 111], the results for the IC50 at DYRK1A (setting [4]), at DYRK3 (setting [5]) and at DYRK2 (setting [6]) were 0.1 to 1 µM, at least 1 µM and at least 1 µM, respectively.
Turning to `N#CCN1CC[C@@H]2NC(=O)N(c3nc4c5c(ccc4s3)OCC5)[C@@H]2C1` (single isomer, unassigned) [Example 112], the IC50 at DYRK1A (setting [4]) is under 0.01 µM; at DYRK3 (setting [5]), 0.1 to 1 µM; at DYRK2 (setting [6]) it was at least 1 µM.
The matching figures for `C#CCN1CC[C@@H]2NC(=O)N(c3nc4c5c(ccc4s3)OCC5)[C@@H]2C1` (single isomer, unassigned) [Example 114]: under 0.01 µM, 0.1 to 1 µM and 0.1 to 1 µM.
`O=C1NC2CNCCC2N1c1nc2c3c(ccc2s1)OCC3` (stereo not drawn) [Example 2]: the IC50 lay within 0.01 to 0.1 µM at DYRK1A (setting [1]), 0.01 to 0.1 µM on DYRK3 (setting [2]) and 0.1 to 1 µM at DYRK2 (setting [3]).
For `O=C1N[C@H]2CCCNC[C@H]2N1c1nc2c3c(ccc2s1)OCC3` [Example 4], the IC50 on DYRK1A (setting [1]) is 0.1 to 1 µM; on DYRK3 (setting [2]), 0.1 to 1 µM; on DYRK2 (setting [3]), at least 1 µM.
With `O=C1N[C@H]2CNCCC[C@H]2N1c1nc2c3c(ccc2s1)OCC3` [Example 5], the IC50 on DYRK1A (setting [1]) lay in the range of 0.01 to 0.1 µM; on DYRK3 (setting [2]), 0.1 to 1 µM; at DYRK2 (setting [3]), 0.1 to 1 µM.
`COCCN1CCC2C(C1)NC(=O)N2c1nc2c3c(ccc2s1)OCC3` (stereo not drawn) [Example 10]: the IC50 at DYRK1A (setting [1]) was 0.1 to 1 µM; at DYRK3 (setting [2]), at least 1 µM; on DYRK2 (setting [3]), at least 1 µM.
Regarding `CCN1CCC2C(C1)NC(=O)N2c1nc2c3c(ccc2s1)OCC3` (stereo not drawn) [Example 12], the IC50 on DYRK1A (setting [1]) lay within 0.01 to 0.1 µM; on DYRK3 (setting [2]), 0.1 to 1 µM; on DYRK2 (setting [3]) it was 0.1 to 1 µM.
In the case of `O=C1NC2CCN(CCO)CC2N1c1nc2c3c(ccc2s1)OCC3` (stereo not drawn) [Example 13], the IC50 on DYRK1A (setting [1]) was 0.01 to 0.1 µM; on DYRK3 (setting [2]), at least 1 µM; at DYRK2 (setting [3]), at least 1 µM.
As for `CC(C)N1CC2NC(=O)N(c3nc4c5c(ccc4s3)OCC5)C2C1` (stereo not drawn) [Example 16], the figures for the IC50 at DYRK1A (setting [1]), at DYRK3 (setting [2]) and on DYRK2 (setting [3]) were 0.1 to 1 µM, at least 1 µM and at least 1 µM, respectively.
In the case of `CN1CCC[C@@H]2[C@H](C1)NC(=O)N2c1nc2c3c(ccc2s1)OCC3` [Example 18], the IC50 on DYRK1A (setting [1]) is 0.01 to 0.1 µM; at DYRK3 (setting [2]), 0.1 to 1 µM; on DYRK2 (setting [3]) it was 0.1 to 1 µM.
Take `O=C1N[C@H]2COCC[C@H]2N1c1nc2c3c(ccc2s1)OCO3` [Example 21, (3aR,7aR)-1-(2H-[1,3]dioxolo[4,5-e][1,3]benzothiazol-7-yl)hexahydropyrano[3,4-d]imidazol-2(3H)-one]: the IC50 was under 0.01 µM at DYRK1A (setting [1]), 0.1 to 1 µM on DYRK3 (setting [2]) and 0.1 to 1 µM at DYRK2 (setting [3]).
`C[C@H]1NC(=O)N(c2nc3c4c(ccc3s2)OCC4)[C@@H]1CN(C)C` [Example 22, (4R,5R)-1-(7,8-dihydrofuro[3,2-e][1,3]benzothiazol-2-yl)-5-[(dimethylamino)methyl]-4-methylimidazolidin-2-one]: the IC50 at DYRK1A (setting [1]) was 0.1 to 1 µM; on DYRK3 (setting [2]), at least 1 µM; at DYRK2 (setting [3]), at least 1 µM.
`C[C@@H]1NC(=O)N(c2nc3c4c(ccc3s2)OCC4)[C@@H]1CN(C)C` [Example 25]: the IC50 on DYRK1A (setting [1]) was 0.01 to 0.1 µM; at DYRK3 (setting [2]), at least 1 µM; on DYRK2 (setting [3]), at least 1 µM.
Take `O=C1NC2CCNCC2N1c1nc2c3c(ccc2s1)OCCO3` (stereo not drawn) [Example 29]: the IC50 at DYRK1A (setting [1]) was 0.01 to 0.1 µM; at DYRK3 (setting [2]), at least 1 µM; at DYRK2 (setting [3]) it was at least 1 µM.
As to `O=C1NC2CCNCC2N1c1nc2c3c(ccc2s1)OCO3` (stereo not drawn) [Example 30], the values for the IC50 at DYRK1A (setting [1]), at DYRK3 (setting [2]) and at DYRK2 (setting [3]) were 0.01 to 0.1 µM, at least 1 µM and at least 1 µM, respectively.
For `O=C1NC2CCN(C3CC3)CC2N1c1nc2c3c(ccc2s1)OCO3` (stereo not drawn) [Example 32], the IC50 is under 0.01 µM at DYRK1A (setting [1]), at least 1 µM on DYRK3 (setting [2]) and at least 1 µM at DYRK2 (setting [3]).
